Each structure is given as a SMILES string.
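Also: ALL cell lines in 384-well plates, five doses spanning 10,000-fold, each plate scaled between vehicle and 100 µmol/L benzalkonium chloride controls, sDSS an adapted area-under-curve metric.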

In the first assay the test system is RPMI-8402. The experiment in a line: selective drug sensitivity score (sDSS, relative to normal bone marrow) (sDSS (score)); higher = more potent and effective on the cell line relative to normal bone marrow cells. The settings on record: 72 h.
With `CC(=O)c1cnc2ccc(-c3cc(Cl)c(O)c(Cl)c3)nc2c1N[C@H]1CC[C@H](CN(C)C)CC1` [OTS167] (top concentration 1000 nM), the “selective drug sensitivity score” value stood at 0.28. Turning to `COC(=O)C[C@](O)(CCCC(C)(C)O)C(=O)O[C@@H]1C(OC)=C[C@]23CCCN2CCc2cc4c(cc2[C@H]13)OCO4` [Omacetaxine] (top concentration 10000 nM), the “selective drug sensitivity score” value is 3.92. On the same count and under the same terms, the value for `C1=N/C2=N/c3ccc(OCCN4CCCC4)c(c3)COC/C=C/COCc3cccc(c3)C(=C1)N2` [Pacritinib] (top concentration 10000 nM) was -5.7. Still for that read-out and setting: the value for `Cc1[nH]c2ccccc2c1CCNCc1ccc(/C=C/C(=O)NO)cc1` [Panobinostat] (top concentration 1000 nM) was 4.14.

As to `Cc1ccc(Nc2nccc(N(C)c3ccc4c(C)n(C)nc4c3)n2)cc1S(N)(=O)=O` [Pazopanib] (top concentration 10000 nM), the “selective drug sensitivity score” value came to 2.44. Same read-out and setting: the value for `Nc1nc2[nH]cc(CCc3ccc(C(=O)N[C@@H](CCC(=O)O)C(=O)O)cc3)c2c(=O)[nH]1` [Pemetrexed] (top concentration 10000 nM) was 24.8; that for `Cc1ccc(C(=O)Nc2ccc(CN3CCN(C)CC3)c(C(F)(F)F)c2)cc1C#Cc1cnc2cccnn12` [Ponatinib] (top concentration 1000 nM) was 2.72; that for `C[C@]12C=CC(=O)C=C1CC[C@@H]1[C@@H]2[C@@H](O)C[C@@]2(C)[C@H]1CC[C@]2(O)C(=O)CO` [Prednisolone] (top concentration 10000 nM) was -1.3. `CC(C)(C)c1cc(NC(=O)Nc2ccc(-c3cn4c(n3)sc3cc(OCCN5CCOCC5)ccc34)cc2)no1` [Quizartinib] (top concentration 1000 nM): the “selective drug sensitivity score” value worked out at 1.18. Still for that read-out and setting: the value for `Nc1cc(F)ccc1NC(=O)/C=C/c1cnn(C/C=C/c2ccccc2)c1` [RGFP966] (top concentration 10000 nM) was 10.5; that for `CNC(=O)c1cc(Oc2ccc(NC(=O)Nc3ccc(Cl)c(C(F)(F)F)c3)c(F)c2)ccn1` [Regorafenib] (top concentration 10000 nM) was 3.44; that for `CN(C)Cc1ccc(S(=O)(=O)n2ccc(/C=C/C(=O)NO)c2)cc1` [Resminostat] (top concentration 10000 nM) was 7.24. Still for that read-out and setting: the value for `COc1cc(OC)c(/C=C/S(=O)(=O)Cc2ccc(OC)c(NCC(=O)O)c2)c(OC)c1` [Rigosertib] (top concentration 10000 nM) was 13.3; that for `COc1ccc(CCc2nc3cc(-c4c(C)noc4C)ccc3n2C[C@H](C)N2CCOCC2)cc1Cl` [SGC-CBP30] (top concentration 25000 nM) was 5.08. For the molecule `CCS(=O)(=O)c1cccc(-c2cc(C(=O)NC3CCN(C)CC3)c(C)c3[nH]c4ncc(C)cc4c23)c1` [TAK-901] (top concentration 1000 nM), the “selective drug sensitivity score” value worked out at 6.56. As for `Nc1nc(NC2CC2)cc(-c2cccc(Cl)c2Cl)n1` [TH588] (top concentration 25000 nM), the “selective drug sensitivity score” value worked out at 5.72. The same measure, in the same setting: the value for `CC(=O)Nc1ccc(C(=O)Nc2ccccc2N)cc1` [Tacedinaline] (top concentration 1000 nM) was 1.58; that for `Cn1ncnc1[C@H]1c2n[nH]c(=O)c3cc(F)cc(c23)N[C@@H]1c1ccc(F)cc1` [Talazoparib] (top concentration 1000 nM) was 0.58.

The subject of a further assay is P12-ICHIKAWA
Described as above. To be noted: 72 h.
As for `Cc1cnc(Nc2ccc(OCCN3CCCC3)cc2)nc1Nc1cccc(S(=O)(=O)NC(C)(C)C)c1` [Fedratinib] (top concentration 10000 nM), the “selective drug sensitivity score” value was -2.56.

As to `COc1ccc(-c2nc(N3CCOCC3)c3sc(CN(C)c4ncc(C(=O)NO)cn4)cc3n2)cn1` [Fimepinostat (CUDC-907)] (top concentration 10000 nM), the “selective drug sensitivity score” value was 5.18. Still for that read-out and setting: the result for `CCOC(=O)CCNc1cc(N2CCc3ccccc3CC2)nc(-c2ccccn2)n1` [GSK-J4] (top concentration 100000 nM) reads -7.68; that for `Cc1cc(Nc2cc(CN3CCOCC3)c3nc(C)c(Cc4ccc(Cl)cc4F)n3n2)n[nH]1` [Gandotinib] (top concentration 10000 nM), -0.62; that for `NC(=O)NO` [Hydroxyurea] (top concentration 1000000 nM), 6.46. Same read-out and setting: the result for `Cc1ccc(NC(=O)c2ccc(CN3CCN(C)CC3)cc2)cc1Nc1nccc(-c2cccnc2)n1` [Imatinib] (top concentration 10000 nM) reads 0.16; that for `CC(C)NC[C@@H](C(=O)N1CCN(c2ncnc3c2[C@H](C)C[C@H]3O)CC1)c1ccc(Cl)cc1` [Ipatasertib] (top concentration 10000 nM), 2.9. Same read-out and setting: the result for `CCC(C)n1ncn(-c2ccc(N3CCN(c4ccc(OCC5COC(Cn6cncn6)(c6ccc(Cl)cc6Cl)O5)cc4)CC3)cc2)c1=O` (centres undefined) [Itraconazole] (top concentration 5000 nM) reads -0.32. As for `Cc1sc2c(c1C)C(c1ccc(Cl)cc1)=N[C@@H](CC(=O)OC(C)(C)C)c1nnc(C)n1-2` [JQ1] (top concentration 10000 nM), the “selective drug sensitivity score” value was 5.12.

In the case of `CCNC(=O)c1noc(-c2cc(C(C)C)c(O)cc2O)c1-c1ccc(CN2CCOCC2)cc1` [Luminespib] (top concentration 1000 nM), the “selective drug sensitivity score” value is -5. Same read-out and setting: the value for `O=C(c1cccc(Cl)c1F)N1CCN(Cc2cccc(Nc3nccs3)n2)CC1` [MK-8745] (top concentration 10000 nM) was 11.3; that for `Cc1ccc(NC(=O)c2ccc(CN3CCN(C)CC3)cc2)cc1Nc1nc(-c2cccnc2)cs1` [Masitinib] (top concentration 10000 nM) was 0.32.

As for `CCN(CC)CCCC(C)Nc1c2ccc(Cl)cc2nc2ccc(OC)cc12` (centres undefined) [Mepacrine] (top concentration 50000 nM), the “selective drug sensitivity score” value was -7.8. On to `COc1ccc(-c2ccc3ncc4c(c3c2)n(-c2ccc(N3CCNCC3)c(C(F)(F)F)c2)c(=O)n4C)cn1` [NVP-BGT226] (top concentration 1000 nM), for which the “selective drug sensitivity score” value came out at 2.72.

As for `COc1nc(N)nc2c1ncn2[C@@H]1O[C@H](CO)[C@@H](O)[C@@H]1O` [Nelarabine] (top concentration 10000 nM), the “selective drug sensitivity score” value was determined as 4.68. As to `Cc1cn(-c2cc(NC(=O)c3ccc(C)c(Nc4nccc(-c5cccnc5)n4)c3)cc(C(F)(F)F)c2)cn1` [Nilotinib] (top concentration 10000 nM), the “selective drug sensitivity score” value was 0.6. Regarding `NC(=O)c1cccc2cn(-c3ccc(C4CCCNC4)cc3)nc12` (centres undefined) [Niraparib] (top concentration 10000 nM), the “selective drug sensitivity score” value was found to be 0.68. For `COc1ccc(C[C@H](NC(=O)[C@H](C)NC(=O)CN2CCOCC2)C(=O)N[C@@H](Cc2ccccc2)C(=O)[C@@]2(C)CO2)cc1` [ONX-0914] (top concentration 10000 nM), the “selective drug sensitivity score” value was 7.3.

Take `CC(=O)c1cnc2ccc(-c3cc(Cl)c(O)c(Cl)c3)nc2c1N[C@H]1CC[C@H](CN(C)C)CC1` [OTS167] (top concentration 1000 nM): the “selective drug sensitivity score” value was -3.32. On the same count and under the same terms, the result for `COC(=O)C[C@](O)(CCCC(C)(C)O)C(=O)O[C@@H]1C(OC)=C[C@]23CCCN2CCc2cc4c(cc2[C@H]13)OCO4` [Omacetaxine] (top concentration 10000 nM) reads 0.82; that for `C1=N/C2=N/c3ccc(OCCN4CCCC4)c(c3)COC/C=C/COCc3cccc(c3)C(=C1)N2` [Pacritinib] (top concentration 10000 nM), -7.3; that for `Cc1[nH]c2ccccc2c1CCNCc1ccc(/C=C/C(=O)NO)cc1` [Panobinostat] (top concentration 1000 nM), 4.14. The same measure, in the same setting: the result for `Cc1ccc(Nc2nccc(N(C)c3ccc4c(C)n(C)nc4c3)n2)cc1S(N)(=O)=O` [Pazopanib] (top concentration 10000 nM) reads 1.04. On the same count and under the same terms, the value for `Nc1nc2[nH]cc(CCc3ccc(C(=O)N[C@@H](CCC(=O)O)C(=O)O)cc3)c2c(=O)[nH]1` [Pemetrexed] (top concentration 10000 nM) was 26.1. In the case of `Cc1ccc(C(=O)Nc2ccc(CN3CCN(C)CC3)c(C(F)(F)F)c2)cc1C#Cc1cnc2cccnn12` [Ponatinib] (top concentration 1000 nM), the “selective drug sensitivity score” value was 1.22. Still for that read-out and setting: the result for `C[C@]12C=CC(=O)C=C1CC[C@@H]1[C@@H]2[C@@H](O)C[C@@]2(C)[C@H]1CC[C@]2(O)C(=O)CO` [Prednisolone] (top concentration 10000 nM) reads 14.6. The same measure, in the same setting: the value for `CC(C)(C)c1cc(NC(=O)Nc2ccc(-c3cn4c(n3)sc3cc(OCCN5CCOCC5)ccc34)cc2)no1` [Quizartinib] (top concentration 1000 nM) was 0.18; that for `Nc1cc(F)ccc1NC(=O)/C=C/c1cnn(C/C=C/c2ccccc2)c1` [RGFP966] (top concentration 10000 nM) was 17.8. Still for that read-out and setting: the result for `CNC(=O)c1cc(Oc2ccc(NC(=O)Nc3ccc(Cl)c(C(F)(F)F)c3)c(F)c2)ccn1` [Regorafenib] (top concentration 10000 nM) reads 3.24.

For the molecule `CN(C)Cc1ccc(S(=O)(=O)n2ccc(/C=C/C(=O)NO)c2)cc1` [Resminostat] (top concentration 10000 nM), the “selective drug sensitivity score” value is 7.34. Same read-out and setting: the value for `COc1cc(OC)c(/C=C/S(=O)(=O)Cc2ccc(OC)c(NCC(=O)O)c2)c(OC)c1` [Rigosertib] (top concentration 10000 nM) was 10.4. Same read-out and setting: the value for `COc1ccc(CCc2nc3cc(-c4c(C)noc4C)ccc3n2C[C@H](C)N2CCOCC2)cc1Cl` [SGC-CBP30] (top concentration 25000 nM) was 1.68; that for `CCS(=O)(=O)c1cccc(-c2cc(C(=O)NC3CCN(C)CC3)c(C)c3[nH]c4ncc(C)cc4c23)c1` [TAK-901] (top concentration 1000 nM) was 12.3. On the same count and under the same terms, the result for `Nc1nc(NC2CC2)cc(-c2cccc(Cl)c2Cl)n1` [TH588] (top concentration 25000 nM) reads 3.72.

For `CC(=O)Nc1ccc(C(=O)Nc2ccccc2N)cc1` [Tacedinaline] (top concentration 1000 nM), the “selective drug sensitivity score” value was found to be 0.68. The same measure, in the same setting: the value for `Cn1ncnc1[C@H]1c2n[nH]c(=O)c3cc(F)cc(c23)N[C@@H]1c1ccc(F)cc1` [Talazoparib] (top concentration 1000 nM) was -0.52.

These data come from the supplement of paper PMC8967900.
